# Results from patent US20210198256A1, “COMPOUNDS FOR THE DEGRADATION OF BRD9 OR MTH1” (C4 Therapeutics, Inc., priority 2018, published 2021).
# Tested on: SMART-CAR_MTH1-WT (Jurkat.2 cells)
# Test: HTFC Assay (HTFC DC50)
# Type: cell-based, human
# Details: Jurkat.2 (SMART-CAR_MTH1-WT) cells, 4 hours at 37° C., FITC anti-HA staining, flow cytometry
# Procedure: FITC anti-HA.11 epitope tag antibody (Biolegend #901507) FITC Mouse IgG1 k isotope control antibody (Biolegend #400108)
# Dry dispense 10 nL/well of compound+90 […] into 96-well V-bottom plates: 4 compounds/plate in 11-point dose response in biological duplicates. Column 12 as DMSO controls.
# • 1. Plate Jurkat.2 (SMART-CAR_MTH1-WT) cells with Combi on top of dry dispensed compound: 500,000 cells/mL, 100 uL/well • 2. Incubate for 4 hours at 37° C. • 3. Fixation, permeabilization, and staining: • a. Centrifuge at 1500 rpm for 7 minutes, remove supernatant. • b. Add 100 μl of Fixation/Permeabilization Solution, seal plates, vortex, pulse spin, and incubate at 4° C. for 30 minutes. • c. Centrifuge at 1500 rpm for 7 minutes, remove supernatant. • d. Dilute BD Perm/Wash Buffer to 1× with milliQ water. • e. Wash with 200 uL of BD Perm/Wash Buffer, seal plates, vortex. • f. Centrifuge at 1500 rpm for 7 minutes, remove supernatant. • g. Wash with 200 uL of BD Perm/Wash Buffer, seal plates, vortex. (Option to stop, store at 4° C. if needed) • h. Centrifuge at 1500 rpm for 7 minutes, remove supernatant. • i. Add 50 uL BD Perm/Wash Buffer containing 1:1000 of HA-FITC (Well A12:D12) or IgG-FITC (Well F12:H12) directly conjugated antibody, seal plates, vortex, pulse spin, and incubate at 4° C. for 1 hour. • j. Centrifuge at 1500 rpm for 7 minutes, remove supernatant. • k. Wash with 200 uL of BD Perm/Wash Buffer, seal plates, vortex. • 4. Centrifuge at 1500 rpm for 7 minutes, remove supernatant. • a. Resuspend in 200 ul of BD Perm/Wash Buffer. (Option to stop, store at 4° C. if needed)
# • 1. Use analysis from template HTFC file. • 2. Export statistics by going to Tools>Group stats, save as a .csv file with the plate barcode as the name. • 3. Remove all columns from this file except for “Well”, “Sample ID”, “Date”, and “HA+.Mean.Y Mean for HA+ gated by P01.cells”. • 4. Create a New DB Analysis in Scinamic using the “HTFC-Cell Pharm” template. • 5. Load Incyte file “barcode”.csv. • 6. Load Echo file with the generated Echo report (P:\LabData\Echo\Project\SMARTCAR\Echo Report\Labcyte Echo Dose-Response) • 7. Edit Platemap.xlsx with the plate barcodes. • 8. Load Plate Map with this file. • 9. Cleanup compound Ids, mask control outliers, and assign curves.
# Using the above assay the HTFC DC50 data was determined for the compounds in Table 2 below.
# Example 6: HiBit and HTFC DC50 Data for Representative Compounds of the Present Invention
row,Structure (SMILES),DC50 [nM]
1,"CNC(=O)c1cnc2ccc(C(=O)NCC(=O)N3CCN(C(=O)CNc4cccc5c4C(=O)N(C4CCC(=O)NC4=O)C5=O)CC3)cc2c1Nc1ccccc1 (stereo not shown) [Compound 348, 4-anilino-N6-[2-[4-[2-[[2-(2,6-dioxo-3-piperidyl)-1,3-dioxo-isoindolin-4-yl]amino]acetyl]piperazin-1-yl]-2-oxo-ethyl]-N3-methyl-quinoline-3,6-dicarboxamide]",< 100
2,"CNC(=O)c1cnc2ccc(-c3ccc(C(=O)NCCCCNC(=O)CNc4cccc5c4C(=O)N(C4CCC(=O)NC4=O)C5=O)c(F)c3)cc2c1Nc1ccccc1 (stereo not shown) [Compound 350, 4-anilino-6-[4-[4-[[2-[[2-(2,6-dioxo-3-piperidyl)-1,3-dioxo-isoindolin-4-yl]amino]acetyl]amino]butylcarbamoyl]-3-fluoro-phenyl]-N-methyl-quinoline-3-carboxamide]",< 100
3,"CNC(=O)c1cnc2ccc(-c3ccn(CCCCCCNC(=O)COc4cccc5c4C(=O)N(C4CCC(=O)NC4=O)C5=O)n3)cc2c1Nc1ccccc1 (stereo not shown) [Compound 361, 4-anilino-6-[1-[6-[[2-[2-(2,6-dioxo-3-piperidyl)-1,3-dioxo-isoindolin-4-yl]oxyacetyl]amino]hexyl]pyrazol-3-yl]-N-methyl-quinoline-3-carboxamide]",< 100
4,"CNC(=O)c1cnc2ccc(-c3ccc(C(=O)NCCCN4CCC(Nc5cccc6c5C(=O)N(C5CCC(=O)NC5=O)C6=O)CC4)cc3)cc2c1Nc1ccccc1 (stereo not shown) [Compound 366, 4-anilino-6-[4-[3-[4-[[2-(2,6-dioxo-3-piperidyl)-1,3-dioxo-isoindolin-4-yl]amino]-1-piperidyl]propylcarbamoyl]phenyl]-N-methyl-quinoline-3-carboxamide]",< 100
5,"CNC(=O)c1cnc2cc(OC)c(-c3ccc(C(=O)NCCCCNC(=O)C(C)Nc4cccc5c4C(=O)N(C4CCC(=O)NC4=O)C5=O)c(F)c3)cc2c1Nc1ccccc1 (stereo not shown) [Compound 367, 6-(4-((4-(2-((2-(2,6-dioxopiperidin-3-yl)-1,3-dioxoisoindolin-4-yl)amino)propanamido)butyl)carbamoyl)-3-fluorophenyl)-7-methoxy-N-methyl-4-(phenylamino)quinoline-3-carboxamide]",< 100
6,"CNC(=O)c1cnc2ccc(-c3ccc(OCCCCNC(=O)CNc4cccc5c4C(=O)N(C4CCC(=O)NC4=O)C5=O)nc3)cc2c1Nc1ccccc1 (stereo not shown) [Compound 369, 4-anilino-6-[6-[4-[[2-[[2-(2,6-dioxo-3-piperidyl)-1,3-dioxo-isoindolin-4-yl]amino]acetyl]amino]butoxy]-3-pyridyl]-N-methyl-quinoline-3-carboxamide]",< 100

# Biological target: T1, BRD9 (Homo sapiens, UniProt Q9H8M2)
# T1 sequence (Q9H8M2 1-597): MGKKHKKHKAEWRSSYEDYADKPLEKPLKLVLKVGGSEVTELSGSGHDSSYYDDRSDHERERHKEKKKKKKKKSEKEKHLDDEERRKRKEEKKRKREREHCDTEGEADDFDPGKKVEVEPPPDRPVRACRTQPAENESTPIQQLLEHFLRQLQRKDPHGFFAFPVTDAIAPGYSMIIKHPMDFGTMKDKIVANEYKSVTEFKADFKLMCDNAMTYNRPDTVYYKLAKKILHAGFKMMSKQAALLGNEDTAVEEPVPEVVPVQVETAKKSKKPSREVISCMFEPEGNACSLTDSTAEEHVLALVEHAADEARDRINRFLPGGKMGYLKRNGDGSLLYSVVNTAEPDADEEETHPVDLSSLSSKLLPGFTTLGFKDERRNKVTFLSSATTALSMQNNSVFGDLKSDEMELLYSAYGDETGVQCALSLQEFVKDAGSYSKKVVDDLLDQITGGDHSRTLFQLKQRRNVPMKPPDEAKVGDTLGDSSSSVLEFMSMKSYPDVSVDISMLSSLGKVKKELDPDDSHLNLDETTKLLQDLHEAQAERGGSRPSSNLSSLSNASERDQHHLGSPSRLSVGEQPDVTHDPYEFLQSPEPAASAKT
# Test: HiBit Lytic Assay (HiBit DC50, BRD9 degraders of Table 1)
# Type: cell-based
# Details: 11-point half log dose response, NanoLuc signal
# Procedure: Example 3. HiBit Lytic Assay
# • Compound is made at 10 mM, half log dilution, 11 points. • MDR plates can also be ordered from Frontier with same format. • 1. Barcode a 384LDV plate (384-well Low Dead Volume Microplate, Labcyte LP-0200) (Echo compatible) on the left side. • 2. Transfer 13.6 μL of 10 mM compound into column 1 of LDV plate (Labcyte). • 3. Fill column 2-11 and column 23 of MDR plate with 9.30 μL of DMSO. • 4. Serial dilute 3.16 fold from column 1 to 2 by transferring 4.30 μL from column 1 to column 2, and so on to column 11. *Change tip in every dilution to prevent compound carryover effect! • 5. Seal the plate with Plate Sealer, then store the MDR plate at room temperature for short term storage and in −20° C. for long term storage.
# • Cells are treated with 30 nL of each compound at 10 mM, half log dilution, 11 points with final concentration of 1000 nM or 833 nM, half log dilution, 11 points, in duplicates. Final DMSO concentration is 0.1%. • 1. Barcode the plates made on the left side and label the plates with silver marker. • 2. Dispense with the following scheme: • a. 30 nL of compound into corresponding wells in cell plates via Echo550 with “MDR32_HiBiT16_30 nL”. Top concentration will be 1000 nM. • 3. Seal the plate with Plate Sealer.
# • Cells are dispensed at density specified in Cell Line Table in 384-well microplate. • 1. Culture cells to between 50-80% of confluence in sterile culture flasks of appropriate size. • 2. For Adherent Cell Lines: • a. Aspirate off growth media in culture flask, and wash off the Phenol Red media with 5 mL of 1×PBS. • b. Add 5 mL of Trypsin to the cells, incubate at 37° C. for 5 minutes. • c. Add 5 mL of growth media to the trypsinzed cells, and resuspend. • 3. Remove 10 μL of cells, and resuspend the cells with 10 μL of Trypan Blue. Insert the solution to counting chamber slide, and count the cells via cell counter. • 4. Adjust the cell concentration to specified plating density, and strain the cells with cell strainer. • 5. Dispense the cells via E1-ClipTip™ Electronic Multichannel Pipettes or Multidrop™ Combi Reagent Dispenser with Standard tube dispensing cassette: • a. Prime the cassette with 10-20 mL of ddH2O. • b. Prime the cassette with 10-20 mL of cells. • c. Dispense the cells at low speed for 30 μL/well in Corning® 384 Well Low Flange Black Flat Bottom Polystyrene TC-Treated Microplate. • d. Wash the cassette with 10-20 mL of ddH2O, follow by 10-20 mL of 70% EtOH, then again with 10-20 mL of ddH2O. • 6. Incubate the plates at 37° C.×compound treatment time.
# • 1. If not already, bring Nano-Glo® HiBiT Lytic Buffer to room temperature. • 2. Determine the amount of reagent needed. A volume of reagent equal to the volume of media in the well should be added (i.e. 30 μL of cells will need 30 μL of HiBiT Lytic reagent). • 3. Into a given volume of buffer, dilute the substrate 50-fold and the LgBiT protein 100-fold. For example, to make 10 ml of reagent, add the following: • 10 ml Nano-Glo® HiBiT Lytic Buffer • 200 μl Nano-Glo® HiBiT Lytic Substrate • 100 μl LgBiT Protein • The reagent should be reconstituted immediately before use. However, once reconstituted, it should take about 4 hours for the activity to decrease 10%. • 4. Cool down the cell plate to room temperature for 10-15 minutes without lid. • 5. Dispense the HiBiT Lytic Reagent via E1-ClipTip™ Electronic Multichannel Pipettes or Multidrop™ Combi Reagent Dispenser with Standard tube dispensing cassette: • a. Prime the cassette with 10-20 mL of ddH2O. • b. Prime the cassette with 10-20 mL of CTG 2.0. • c. Dispense the HiBiT Lytic Reagent at medium speed for 30 μL/well in cell plate to column 1-23 (column 24 will be used as plate background). • d. Wash the cassette with 10-20 mL of ddH2O, follow by 10-20 mL of 70% EtOH, then again with 10-20 mL of ddH2O. • 6. Incubate the cell plate at room temperature for 10 minutes without lid. • 7. […]
row,Structure (SMILES),DC50 [nM]
1,"COc1cc(-c2cn(C)c(=O)c3cnccc23)cc(F)c1CN(C)CC(=O)NCCCCCCCCNc1cccc2c1C(=O)N(C1CCC(=O)NC1=O)C2=O (stereo not shown) [Compound 222, N-[8-[[2-(2,6-dioxo-3-piperidyl)-1,3-dioxo-isoindolin-4-yl]amino]octyl]-2-[[2-fluoro-6-methoxy-4-(2-methyl-1-oxo-2,7-naphthyridin-4-yl)phenyl]methyl-methyl-amino]acetamide]",< 100
2,"COc1cc(-c2cn(C)c(=O)c3cnccc23)cc(OC)c1COCC(=O)NCCCCCCCCNc1cccc2c1C(=O)N(C1CCC(=O)NC1=O)C2=O (stereo not shown) [Compound 223, 2-[[2,6-dimethoxy-4-(2-methyl-1-oxo-2,7-naphthyridin-4-yl)phenyl]methoxy]-N-[8-[[2-(2,6-dioxo-3-piperidyl)-1,3-dioxo-isoindolin-4-yl]amino]octyl]acetamide]",< 100
3,"COc1cc(-c2cn(C)c(=O)c3cnccc23)cc(OC)c1C(C)N(C)CC(=O)NCCCCCCCCNc1cccc2c1C(=O)N(C1CCC(=O)NC1=O)C2=O (stereo not shown) [Compound 224, 2-[1-[2,6-dimethoxy-4-(2-methyl-1-oxo-2,7-naphthyridin-4-yl)phenyl]ethyl-methyl-amino]-N-[8-[[2-(2,6-dioxo-3-piperidyl)-1,3-dioxo-isoindolin-4-yl]amino]octyl]acetamide]",< 100
4,"COc1cc(-c2cn(C)c(=O)c(C)n2)cc(OC)c1CN(C)CC(=O)NCCCCCCCCNc1cccc2c1C(=O)N(C1CCC(=O)NC1=O)C2=O (stereo not shown) [Compound 225, 2-((4-(4,6-dimethyl-5-oxo-4,5-dihydropyrazin-2-yl)-2,6-dimethoxybenzyl)(methyl)amino)-N-(8-((2-(2,6-dioxopiperidin-3-yl)-1,3-dioxoisoindolin-4-yl)amino)octyl)acetamide]",< 100
